Experimental data taken from paper PMC5104457, “ATP-Competitive MLKL Binders Have No Functional Impact on Necroptosis” (PLoS ONE, 2016).
“Also recorded” adds a separate entry of the source.

What was measured:
[1] = test system: RIPK3 phosphorylation of MLKL in 293T cells; test: MLKL phosphorylation assay (MSD), RIPK3-dependent phospho Ser358; type: cell-based, human; details: 293T cells with GFP-MLKL and RIPK3-mCherry, 30 min compound, normalized to DMSO
Procedure: The cDNA clones of human MLKL (RC213152) and human RIPK3 (RC209549) were purchased from Origene. To generate GFP-MLKL and RIPK3-mCherry, coding sequences of the corresponding cDNA sequences were PCR amplified and cloned into Biogen’s mammalian expression vector.
293T cells grown in 10 cm plates were transfected with GFP-MLKL alone or both GFP-MLKL and RIPK3-mCherry plasmids. After 24 hours, cells were harvested and replated into poly D lysine coated 96W plate with 20,000 cells/ml. Four hours later, cells were treated with MLKL compounds for 30 min and incubated at 37°C. Thirty minutes later, the media was removed and cells were lysed in 150μl of Cell lysis buffer (Cell Signaling, MA) containing both protease and phosphatase inhibitors. The lysates were transferred to 96 well MSD plates (Meso Scale Discovery, MD) that were precoated with anti-mouse MLKL antibody H00197259-M02, 3B2, Novus Biologicals, CO), and incubated overnight at 4°C. After washing the plates three times with 1x MSD wash buffer (50mM TRIS-HCl, 150mM NaCl, 0.02% Tween 20, pH7.5), 100 μl of 0.5μg/ml of rabbit-anti-MLKL phospho Ser358 (Abcam AB187091) was added to each well. The plates were incubated for 2 hours at room temperature. After three washes with MSD wash buffer, 100 μ l of 0.5ug/ml of SULFO-tag labeled anti-rabbit IgG was added to each well and incubated for 1 hour at room temperature. After three washes, 1x Read bufferT (Meso Scale Discovery, MD) was added and the electrochemiluminescence (ECL) was measured with a MSD Sector Imager 600.

full length MLKL = molecular target: T1, full length MLKL (Homo sapiens, UniProt Q8NB16); test: KINOMEscan ATP-competitive probe displacement (competition binding) assay, MLKL; details: for Kd: average of duplicates
T1 construct: purchased DiscoverX (KINOMEscan service); host or cells: HEK-293
T1 sequence (Q8NB16 1-471): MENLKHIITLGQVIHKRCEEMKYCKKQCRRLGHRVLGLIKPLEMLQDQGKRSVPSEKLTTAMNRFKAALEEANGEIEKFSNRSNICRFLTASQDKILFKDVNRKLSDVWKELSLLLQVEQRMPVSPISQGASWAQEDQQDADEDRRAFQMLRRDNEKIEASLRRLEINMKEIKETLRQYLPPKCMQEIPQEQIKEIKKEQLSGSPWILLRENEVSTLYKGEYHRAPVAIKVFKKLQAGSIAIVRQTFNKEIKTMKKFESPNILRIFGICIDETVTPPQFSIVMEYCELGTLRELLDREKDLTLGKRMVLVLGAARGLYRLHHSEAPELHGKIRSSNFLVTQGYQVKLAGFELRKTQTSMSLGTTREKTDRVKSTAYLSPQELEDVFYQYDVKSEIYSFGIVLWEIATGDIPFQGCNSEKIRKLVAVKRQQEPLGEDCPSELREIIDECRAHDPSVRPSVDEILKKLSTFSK
Procedure: Compound binding constants (KDs) were determined at DiscoverX using their KINOMEscan assay platform. […] Briefly, full length MLKL was expressed in HEK-293 cells as a fusion with an NFκB DNA binding domain and subsequently tagged with a qPCR detection amplicon via interaction with NFκB. […] Twenty microliters of binding reactions were carried out in 384-well polypropylene plates for 1 hour at room temperature. Beads were subsequently washed and resuspended in elution buffer for 30 minutes at room temperature with shaking. The concentration of MLKL in the eluates was measured by qPCR and compound binding constants were calculated using a standard dose-response curve.
(§1) A similar approach was used to measure binding affinities for RIPK1 and RIPK3 kinase domains.

RIPK1 kinase domain = molecular target: T2, RIPK1 kinase domain (Homo sapiens, UniProt Q13546); test: ATP-competitive probe displacement assay, RIPK1; type: binding; details: for weaker potency to RIPK1 relative to MLKL: RIPK1 KD versus MLKL KD; for Kd: average of duplicates
T2 construct: purchased DiscoverX
T2 sequence (Q13546 17-289 limits assumed): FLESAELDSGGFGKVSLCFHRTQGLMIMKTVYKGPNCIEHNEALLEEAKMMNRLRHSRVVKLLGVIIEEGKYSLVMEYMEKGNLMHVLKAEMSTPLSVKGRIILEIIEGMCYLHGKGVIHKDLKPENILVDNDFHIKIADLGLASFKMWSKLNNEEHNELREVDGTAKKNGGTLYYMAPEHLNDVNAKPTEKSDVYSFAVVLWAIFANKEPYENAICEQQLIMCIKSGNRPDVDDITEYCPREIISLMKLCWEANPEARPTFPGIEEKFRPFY
Procedure: (§2) Compound binding constants (KDs) were determined at DiscoverX using their KINOMEscan assay platform. This competition binding assay was previously described in Karaman et al. (2008)[18]. Briefly, full length MLKL was expressed in HEK-293 cells as a fusion with an NFκB DNA binding domain and subsequently tagged with a qPCR detection amplicon via interaction with NFκB. […] Twenty microliters of binding reactions were carried out in 384-well polypropylene plates for 1 hour at room temperature. Beads were subsequently washed and resuspended in elution buffer for 30 minutes at room temperature with shaking. The concentration of MLKL in the eluates was measured by qPCR and compound binding constants were calculated using a standard dose-response curve.
as §1

kinase domain of RIPK1 = molecular target: T3, kinase domain of RIPK1 (Homo sapiens, UniProt Q13546); test: Differential scanning fluorimetry (thermal shift), RIPK1 kinase domain; type: binding; details: 10 μM compound, 1 μM protein, average of triplicates
T3 construct: The kinase domain of RIPK1; made in house
T3 sequence (Q13546 17-289 limits assumed): T2 sequence (Q13546 17-289 limits assumed)
Procedure: (§3) To measure the thermal stabilization of the proteins upon compound binding we employed differential scanning fluorimetry (DSF). The kinase domain of RIPK1 and the N-terminal domain HSP90α were expressed and purified as previously described. The pseudokinase MLKL-1, RIPK1 and Hsp90 were melted at 1μM final concentrations in 25mM HEPES pH 8.0, 250mM NaCl and 2.5mM DTT. Compounds were added to a final concentration of 10 μ M with a final DMSO concentration of 5%. The complexes were incubated on ice for 30 minutes. Protein Thermal Shift dye (Life Technologies) was added to 1X. The fluorescence intensities were measured using a Quantstudio real-time PCR system (Life Technologies) with excitation at 470 nm and emission at 586 nm. The samples, measured in triplicate, were heated from 25 to 85°C with a heating rate of […].

pseudokinase MLKL-1 = molecular target: T4, pseudokinase MLKL-1 (Homo sapiens, UniProt Q8NB16); test: Differential scanning fluorimetry (thermal shift), MLKL pseudokinase domain; type: binding; details: 10 μM compound, 1 μM protein, average of triplicates; read-out: MLKL Pseudo-kinase thermal shift at 10 μM
T4 construct: sub-cloning residues 191 to 471 of the pseudokinase domain of human MLKL cDNA; His6 (thrombin cleavable) (N); made in house; host or cells: Escherichia coli BL21 (DE3)
T4 sequence (Q8NB16 191-471): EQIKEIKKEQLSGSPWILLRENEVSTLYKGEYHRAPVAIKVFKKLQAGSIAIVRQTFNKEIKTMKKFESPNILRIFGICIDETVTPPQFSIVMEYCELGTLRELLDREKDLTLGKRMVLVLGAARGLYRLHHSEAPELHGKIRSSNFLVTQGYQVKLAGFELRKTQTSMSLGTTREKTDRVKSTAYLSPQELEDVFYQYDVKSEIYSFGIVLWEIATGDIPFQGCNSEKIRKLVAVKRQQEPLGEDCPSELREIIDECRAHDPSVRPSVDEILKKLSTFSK
From the text: MLKL-1 was constructed by sub-cloning residues 191 to 471 of the pseudokinase domain of human MLKL cDNA into a pET15b vector with a thrombin cleavable N-terminal six histidine fusion tag (His-MLKL-1). MLKL-2 had the same protein boundaries and fusion tag system as MLKL-1 but the dual mutations E366A and K367A were introduced using site directed mutagenesis and was expressed in the same vector (His-MLKL-2).
as §3

FADD (-/-) Jurkat cells [2] = test: Necroptosis assay: rescue from TNF-α induced cell death; type: cell-based; details: FADD deficient Jurkat cells; for IC50: TNF-α 15 ng/ml overnight, average of duplicates, read-out: Necroptosis cell IC50
Procedure: Necroptosis assays were performed at Charles River Laboratories (United Kingdom) and at Biogen. […] On the day of the experiment, cells were counted using Nexcelom Bioscience Cell Meter Vision and pelleted by centrifugation. Cell pellets were resuspended in fresh medium at 500,000 cells per mL and transferred to assay-ready compound plates prepared in 384-well white TC plates (Greiner #781080) at 20μl cells per well. Cells and compound were incubated at room temperature for 30 minutes followed by +/- stimulation with 15ng/ml TNF-α (Cell signalling Technologies #8902LF) overnight at 37°C. In the morning, plates were equilibrated to room temperature for 30 minutes and 25μl of CellTiter-Glow (CellTiter-Glo 2.0 Assay, Promega # G9243) diluted 1:4 in PBS was added to each well and allowed to incubate for 10 minutes at room temperature. Luminescence was read on an Envision plate reader (Perkin Elmer).
TNF-α added to these cells induces necroptosis or cell death. The term “Rescue” refers to the ability of a compound to prevent loss of cell viability in the presence of TNF. Definitions of the presence or absence of compound or TNF stimulation in the wells that were used to calculate degree of rescue or viability is defined in Table 1.
100% percent rescue is defined as the value of the “no TNF” wells minus the value of wells treated with “TNF”.
Percent Rescue is then the ratio of the intensity value of the experimental “well” minus the value of “TNF” treated wells divided by the overall difference between the value of “no TNF” treated wells and the value of “TNF” treated wells.
%rescue=((well - TNF)/(no TNF - TNF))x100

FADD (-/-) Jurkat cells [3] = test: Viability experiment in the absence of TNF; type: cell-based; details: FADD deficient Jurkat cells, no TNF, Fig 3F
Procedure: Necroptosis assays were performed at Charles River Laboratories (United Kingdom) and at Biogen. […] On the day of the experiment, cells were counted using Nexcelom Bioscience Cell Meter Vision and pelleted by centrifugation. Cell pellets were resuspended in fresh medium at 500,000 cells per mL and transferred to assay-ready compound plates prepared in 384-well white TC plates (Greiner #781080) at 20μl cells per well. Cells and compound were incubated at room temperature for 30 minutes followed by +/- stimulation with 15ng/ml TNF-α (Cell signalling Technologies #8902LF) overnight at 37°C. In the morning, plates were equilibrated to room temperature for 30 minutes and 25μl of CellTiter-Glow (CellTiter-Glo 2.0 Assay, Promega # G9243) diluted 1:4 in PBS was added to each well and allowed to incubate for 10 minutes at room temperature. Luminescence was read on an Envision plate reader (Perkin Elmer). Percent viability values are calculated from separate dose response experiments identical to the percent rescue experiment except that no TNF is added to the cells. This assay is intended to identify compounds that not only don’t rescue, but are toxic themselves. 100% Viability is defined as the intensity value of the “no TNF” wells, cell treated with neither compound nor TNF. […]

RIPK3 kinase domain = molecular target: T5, RIPK3 kinase domain (Homo sapiens, UniProt Q9Y572); test: ATP-competitive probe displacement assay, RIPK3; type: binding
T5 construct: purchased DiscoverX
Procedure: as §2, §1

T5 sequence (Q9Y572 21-287 limits assumed): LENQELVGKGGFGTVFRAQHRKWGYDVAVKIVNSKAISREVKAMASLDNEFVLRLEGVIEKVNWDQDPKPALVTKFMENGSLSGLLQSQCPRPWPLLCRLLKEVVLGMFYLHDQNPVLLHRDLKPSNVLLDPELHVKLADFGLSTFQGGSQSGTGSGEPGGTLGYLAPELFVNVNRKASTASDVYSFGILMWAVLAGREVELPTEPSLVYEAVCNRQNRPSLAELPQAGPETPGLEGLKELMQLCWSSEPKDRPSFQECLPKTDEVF

SMILES | effect on RIPK3-dependent phosphorylation of MLKL (phospho Ser358, in words) [1] | Kd (full length MLKL) [nM] | weaker potency to RIPK1 relative to MLKL (RIPK1 kinase domain) | Kd (RIPK1 kinase domain) [nM] | ΔTm at 10 µM (kinase domain of RIPK1) [°C] | ΔTm at 10 µM (pseudokinase MLKL-1) [°C] | IC50 (FADD (-/-) Jurkat cells [2]; Homo sapiens) [nM] | further results
CC(C)S(=O)(=O)c1ccc2nccc(Nc3ccc4scnc4c3)c2c1 [GSK872] | completely inhibited; also recorded: inhibits phosphorylation of MLKL |  |  |  |  |  |  | 
CC(=O)Nc1ccc(N(C)c2ccnc(Nc3cccc(S(N)(=O)=O)c3)n2)cc1 [cpd 2] |  | 780 | at least 10 fold | > 10000 | 0 | 2.93 | > 40000 | 
CN1C(=O)C(Cc2c[nH]c3ccccc23)NC1=S (stereo not shown) [Nec1s, Necrostatin, reference compound] |  |  |  |  |  |  |  | EC50 (FADD (-/-) Jurkat cells [2]; Homo sapiens, TNF stimulation): 500 nM; effect on cell viability in the absence of TNF stimulation (in words) (FADD (-/-) Jurkat cells [3]): does not effect cell viability
COc1nccnc1NS(=O)(=O)c1ccc(NC(=O)/C=C/c2ccc([N+](=O)[O-])s2)cc1 [NSA, Necrosulfonamide, reference compound] |  |  |  | > 30000 | 0.15 | 0.67 | 200 | displacement of the ATP probe from MLKL (in words) (full length MLKL; data not shown): not to displace the ATP probe; displacement of the ATP probe from / binding to RIPK1 (in words) (RIPK1 kinase domain): not to displace the ATP probe; displacement of the ATP probe from / binding to RIPK3 (in words) (RIPK3 kinase domain): not to displace the ATP probe; Kd (RIPK3 kinase domain; average of duplicates): > 30000 nM
CN(c1ccc(N)cc1)c1ccnc(Nc2cccc(S(N)(=O)=O)c2)n1 [cpd 3] |  | 880 | at least 10 fold | > 10000 | 0.31 | 1.57 | > 40000 | 
C[C@@H](Oc1cc(-c2cnn(C3CCNCC3)c2)cnc1N)c1c(Cl)ccc(F)c1Cl [Crizontinib, reference compound] | does not impact its phosphorylation |  |  |  | 0.75 | 5.63 | > 40000 | rescue of cells from necroptosis (in words) (FADD (-/-) Jurkat cells [2]; dose-response, Fig 3): does not rescue cells from necroptosis
